From patent US10633389B2, “CARM1 inhibitors and uses thereof” (Epizyme, Inc., priority 2013, dated 2020)
pIC50: −log10 of the molar value.

Key:
human CARM1 (PRMT4) = human CARM1 (PRMT4) (Homo sapiens (Human), UniProt Q86X55); assay: CARM1 enzyme assay on peptide substrate (3H-SAM Flashplate); settings: Biochemical potencies, read-out: Biochem IC50
Description: S-adenosylmethionine (SAM), S-adenosylhomocysteine (SAH), bicine, Tween20, dimethylsulfoxide (DMSO), bovine skin gelatin (BSG), sodium butyrate and Tris(2-carboxyethyl)phosphine hydrochloride solution (TCEP) were purchased from Sigma-Aldrich at the highest level of purity possible. ^3H-SAM was purchase from American Radiolabeled Chemicals with a specific activity of 80 Ci/mmol. 384-well streptavidin Flashplates were purchased from PerkinElmer.
Peptide representative of human histone H3 residues 16-30 was synthesized with an N-terminal linker-affinity tag motif and a C-terminal amide cap by 21st Century Biochemicals. […] The sequence was Biot-Ahx-[…]-amide and contained a monomethylated arginine at position 26 (SEQ ID NO.:1).
The gene sequence encoding isoform 1 containing a deletion of amino acids 539-561 was amplified subsequently and subcloned into pFastBacMam (Viva Biotech).
Recombinant baculovirus were generated according to Bac-to-Bac kit instructions (Life Technologies). Protein over-expression was accomplished by infecting exponentially growing HEK 293F cell culture at 1.3×10^6 cell/ml with virus (MOI=10) in the presence of 8 mM sodium butyrate. Infections were carried out at 37° C. for 48 hours, harvested by centrifugation, and stored at −80° C. for purification.
Expressed full-length human Flag- and His-tagged CARM1 protein was purified from cell paste by anti-flag M2 affinity chromatography with resin equilibrated with buffer containing 20 mM Tris, 150 mM NaC, 5% glycerol, pH 7.8. Column was washed with 500 mM NaCl in buffer A and Flag-CARM1-His was eluted with 200 ug/ml FLAG peptide in buffer A. Pooled fractions were dialyzed in 20 mM Tris, 150 mM NaCl, 5% glycerol and 1 mM DTT, pH 7.8.
The assays were all performed in a buffer consisting of 20 mM Bicine (pH=7.6), 1 mM TCEP, 0.005% BSG, and 0.002% Tween 20, prepared on the day of use. Compounds in 100% DMSO (1 ul) were spotted into a polypropylene 384-well V-bottom plates (Greiner) using a Platemate Plus outfitted with a 384-channel head (Thermo Scientific). DMSO (1 ul) was added to Columns 11, 12, 23, 24, rows A-H for the maximum signal control and 1 ul of SAH, a known product and inhibitor of CARM1, was added to columns 11, 12, 23, 24, rows I-P for the minimum signal control. A cocktail (40 ul) containing the CARM1 enzyme was added by Multidrop Combi (Thermo-Fisher). The compounds were allowed to incubate with CARM1 for 30 min at room temperature, then a cocktail (10 ul) containing ^3H-SAM and peptide was added to initiate the reaction (final volume=51 ul). The final concentrations of the components were as follows: CARM1 was 0.25 nM, ^3H-SAM was 30 nM, peptide was 250 nM, SAH in the minimum signal control wells was 1 mM, and the DMSO concentration was 2%. The assays were stopped by the addition of non-radiolabeled SAM (10 ul) to a final concentration of 300 uM, which dilutes the ^3H-SAM to a level where its incorporation into the peptide substrate is no longer detectable. 50 ul of the reaction in the 384-well polypropylene plate was then transferred to a 384-well Flashplate and the biotinylated peptides were allowed to bind to the streptavidin surface for at least 1 hour before being washed once with 0.1% Tween20 in a Biotek ELx405 plate washer. The plates were then read in a PerkinElmer TopCount plate reader to measure the quantity of ^3H-labeled peptide bound to the Flashplate surface, measured as disintegrations per minute (dpm) or alternatively, referred to as counts per minute (cpm).
The Hill Coefficient normally allowed to float but may also be fixed at 1 in a 3-parameter fit.

[1] = test system: asymmetric di-methyl PABP1 in RKO cells; assay: RKO methylation assay, In Cell Western (ICW) for asymmetric di-methyl PABP1; type: cell-based; settings: Homo sapiens, RKO, Cellular potencies, ICW PABP1me2a
Summary of the method: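 RKO cells treated with compound for 48 h at 37 °C, then fixed, permeabilized and immunostained for asymmetric di-methyl PABP1, with DRAQ5 as DNA stain. Infrared 700/800 nm signal ratio normalized to DMSO and 20 μM reference-compound controls; IC50 from triplicate wells.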

Sequence of human CARM1 (PRMT4) (Q86X55 other isoform, or with tags, fused parts or gaps isoform Q86X55-1): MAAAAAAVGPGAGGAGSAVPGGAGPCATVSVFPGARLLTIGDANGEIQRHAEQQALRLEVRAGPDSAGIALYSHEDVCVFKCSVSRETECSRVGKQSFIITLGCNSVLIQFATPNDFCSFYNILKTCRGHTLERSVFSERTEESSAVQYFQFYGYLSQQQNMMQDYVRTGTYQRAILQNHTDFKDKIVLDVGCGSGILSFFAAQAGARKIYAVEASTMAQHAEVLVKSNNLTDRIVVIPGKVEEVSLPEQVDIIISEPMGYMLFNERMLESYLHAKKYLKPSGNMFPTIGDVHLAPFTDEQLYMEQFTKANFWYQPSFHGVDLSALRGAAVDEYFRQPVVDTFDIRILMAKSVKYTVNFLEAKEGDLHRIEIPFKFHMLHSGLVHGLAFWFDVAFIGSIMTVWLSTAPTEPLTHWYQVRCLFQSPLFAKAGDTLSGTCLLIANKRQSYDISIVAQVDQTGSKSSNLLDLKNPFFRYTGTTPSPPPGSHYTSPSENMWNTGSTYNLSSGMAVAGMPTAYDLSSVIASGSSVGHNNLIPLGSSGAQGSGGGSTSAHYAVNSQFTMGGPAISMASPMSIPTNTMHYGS

SMILES	pIC50 (human CARM1 (PRMT4))	pIC50 [1]
CNCC(O)COc1cccc(-c2nccc(-c3c(C)noc3C)n2)c1 (centres unmarked) [Example 2-1a]	6.00 to 7.00	4.70 to 5.00
NCC(O)COc1cccc(-c2cc(N3CCOCC3)nc(N3CCOCC3)n2)c1 (centres unmarked) [Example 7-2]	6.00 to 7.00	–
CNCC(O)COc1cccc(-c2nc(NC3CCOCC3)cc(N(C)C)n2)c1 (centres unmarked) [Example 8-1]	6.00 to 7.00	–
CNCC(O)COc1cccc(-c2cc(C3CCOCC3)nc(N[C@H]3CCOC3)n2)c1 (some centres unmarked) [Example 10-2]	6.00 to 7.00	–
CNCC(O)COc1cccc(-c2nc(NC3COC3)cc(-c3c(C)noc3C)n2)c1 (centres unmarked) [Example 22-1a]	6.00 to 7.00	4.70 to 5.00
CNCC(O)COc1cccc(-c2nc(NC3CCOC3=O)cc(-c3c(C)noc3C)n2)c1 (centres unmarked) [Example 24-1a]	6.00 to 7.00	–
CNCC(O)COc1cccc(-c2nc(-c3ccn4cnnc4c3)c(C)c(-c3c(C)noc3C)n2)c1 (centres unmarked) [Example 37-1a]	6.00 to 7.00	4.70 to 5.00
CNCC(O)COc1cccc(-c2nc(C(=O)N(C)CC3CCOCC3)cc(-c3c(C)noc3C)n2)c1 (centres unmarked) [Example 46-1a]	6.00 to 7.00	4.70 to 5.00
CNCC(O)COc1cccc(-c2nc(Nc3c(C)noc3C)cc(-c3c(C)noc3C)n2)c1 (centres unmarked) [Example 48-1a]	5.52 to 6.00	4.70 to 5.00
CNCC(O)COc1cccc(-c2nc(C(=O)N(C)C)cc(-c3c(C)noc3C)n2)c1 (centres unmarked) [Example 63-1a]	5.52 to 6.00	4.70 to 5.00
CNCC(O)COc1cccc(-c2nc(-c3c(C)noc3C)cc(N(C)C(C)=O)n2)c1 (centres unmarked) [Example 64-1a]	6.00 to 7.00	4.70 to 5.00
CNCC(O)COc1cccc(-c2nc(C(=O)NCC3CCOCC3)cc(-c3c(C)noc3C)n2)c1 (centres unmarked) [Example 65-1a]	6.00 to 7.00	4.70 to 5.00
CNC[C@@H](O)COc1ccc(F)c(-c2nc(-c3c(C)noc3C)c(C)c(-c3c(C)noc3C)n2)c1 [Example 78-3]	6.00 to 7.00	≤ 4.70
CNCC(O)COc1cccc(-c2nc(Nc3c(C)nn(C)c3C)cc(-c3c(C)noc3C)n2)c1 (centres unmarked) [Example 122-1a]	5.52 to 6.00	4.70 to 5.00
CNCC(O)COc1cccc(-c2nc(NC(C)C3CCOCC3)cc(-c3c(C)noc3C)n2)c1 (centres unmarked) [Example 158-1a]	6.00 to 7.00	5.00 to 5.30
CNCC(O)COc1cccc(-c2nc(N[C@H]3CCOC3)c(C)c(-c3ccncc3)n2)c1 (some centres unmarked) [Example 333-1a]	6.00 to 7.00	4.70 to 5.00
CNCC(O)COc1cc(Cl)cc(-c2nc(NC3CCNCC3)cc(-c3ccncc3)n2)c1 (centres unmarked) [Example 665-1a]	–	≤ 4.70
CNCC(O)COc1cccc(-c2nc(-c3ccncc3)cc(N(C)C3CCNCC3)n2)c1 (centres unmarked) [Example 669-1a]	–	≤ 4.70
CNCC(O)COc1cccc(-c2nc(C(=O)NC3CCOCC3)c(C)c(C(=O)NC3CCOCC3)n2)c1 (centres unmarked) [Example 677-1a]	–	≤ 4.70
CCN(CC)c1nc(-c2cccc(OCC(O)CNC)c2)nc(N2CCOCC2)c1C (centres unmarked) [Example 682-1a]	–	≤ 4.70

Further lines, results first:

pIC50 (human CARM1 (PRMT4))	pIC50 [1]	SMILES
6.00 to 7.00	4.70 to 5.00	CNCC(O)COc1cccc(-c2nc(-c3c(C)noc3C)c(C)c(-c3c(C)noc3C)n2)c1 (centres unmarked) [Example 25-1a]
5.52 to 6.00	4.70 to 5.00	CNCC(O)COc1cccc(-c2nc(-c3c(C)n[nH]c3C)c(C)c(-c3c(C)noc3C)n2)c1 (centres unmarked) [Example 26-1a]
6.00 to 7.00	≤ 4.70	CCCCOc1nc(-c2ccc(F)c(OCC(O)CNC)c2)nc(-c2c(C)noc2C)c1C (centres unmarked) [Example 50-3]
6.00 to 7.00	≤ 4.70	CNCC(O)COc1cc(-c2nc(NC3CCOC(C)C3)c(C)c(-c3c(C)noc3C)n2)ccc1F (centres unmarked) [Example 51-3]
6.00 to 7.00	4.70 to 5.00	CNCC(O)COc1cccc(-c2nc(C(=O)NC3CCOCC3)cc(-c3c(C)noc3C)n2)c1 (centres unmarked) [Example 52-1a]
6.00 to 7.00	≤ 4.70	CNCC(O)COc1cc(-c2nc(NC3CCOCC3)c(C)c(-c3c(C)noc3C)n2)ccc1F (centres unmarked) [Example 52-3]
5.52 to 6.00	4.70 to 5.00	CNCC(O)COc1cccc(-c2nc(C(=O)NC3CCOCC3)c(C)c(-c3c(C)noc3C)n2)c1 (centres unmarked) [Example 62-1a]
6.00 to 7.00	4.70 to 5.00	CNCC(O)COc1cccc(-c2nc(O)c(C)c(-c3c(C)noc3C)n2)c1 (centres unmarked) [Example 73-1a]
5.00 to 5.52	≤ 4.70	CNCC(O)COc1cccc(-c2nc(NC3CCOCC3)c(C)c(-c3c(C)noc3C)n2)c1Cl (centres unmarked) [Example 79-3]
6.00 to 7.00	≤ 4.70	CNCC(O)COc1cccc(-c2nc(NC3CCOC(C)C3)c(C)c(-c3c(C)noc3C)n2)c1Cl (centres unmarked) [Example 80-3]
5.52 to 6.00	≤ 4.70	CNC[C@H](O)COc1ccc(F)c(-c2nc(-c3c(C)noc3C)c(C)c(-c3c(C)noc3C)n2)c1 [Example 81-3]
6.00 to 7.00	4.70 to 5.00	CNCC(O)COc1cccc(-c2nc(OC)c(C)c(-c3c(C)noc3C)n2)c1 (centres unmarked) [Example 83-1a]
5.00 to 5.52	≤ 4.70	CNCC(O)COc1cccc(-c2nc(NC3CCN(C(=O)OC)CC3)c(C)c(-c3c(C)noc3C)n2)c1Cl (centres unmarked) [Example 107-3]
5.00 to 5.52	4.70 to 5.00	CNCC(O)COc1cccc(-c2nc(NC3(C(=O)NC)CCOC3)c(C)c(-c3c(C)noc3C)n2)c1 (centres unmarked) [Example 113-1a]
6.00 to 7.00	5.00 to 5.30	CNCC(O)COc1cccc(-c2nc(-c3c(C)noc3C)c(C)c(N3CCO[C@@H](CO)C3)n2)c1 (some centres unmarked) [Example 123-1a]
6.00 to 7.00	4.70 to 5.00	CNCC(O)COc1ccc(C)c(-c2nc(NC3CCOCC3)c(C)c(-c3c(C)noc3C)n2)c1 (centres unmarked) [Example 123-3]
6.00 to 7.00	5.00 to 5.30	CNCC(O)COc1cccc(-c2nc(-c3c(C)noc3C)c(C)c(N3CCO[C@H](CN(C)C(=O)N(C)C)C3)n2)c1 (some centres unmarked) [Example 128-1a]
6.00 to 7.00	4.70 to 5.00	CNCC(O)COc1cccc(-c2nc(-c3c(C)noc3C)c(C)c(-c3nc(C)cn3C)n2)c1 (centres unmarked) [Example 130-1a]
6.00 to 7.00	≤ 4.70	CNCC(O)COc1ccc(C#N)c(-c2nc(NC3CCN(C(=O)OC)CC3)c(C)c(-c3c(C)noc3C)n2)c1 (centres unmarked) [Example 165-3]
6.00 to 7.00	≤ 4.70	CNCC(O)COc1ccc(C#N)c(-c2nc(NC3CCOCC3)c(C)c(-c3c(C)noc3C)n2)c1 (centres unmarked) [Example 166-3]
6.00 to 7.00	4.70 to 5.00	CNCC(O)COc1cccc(-c2nc(-c3c(C)noc3C)c(C)c(N3CCC[C@@H](N(C)C(=O)OC)C3)n2)c1 (some centres unmarked) [Example 180-1a]
6.00 to 7.00	≤ 4.70	COC(=O)N1CC[C@H](Nc2nc(-c3cc(OC[C@H](O)CN(C)C)ccc3Cl)nc(-c3c(C)noc3C)c2C)C[C@@H]1C [Example 193-3]
6.00 to 7.00	4.70 to 5.00	CNCC(O)COc1cccc(-c2nc(NC3CCOCC3)c(CO)c(-c3c(C)noc3C)n2)c1 (centres unmarked) [Example 213-1a]
6.00 to 7.00	5.00 to 5.30	CNCC(O)COc1cccc(-c2nc(NC3CCOCC3)c(C(F)F)c(-c3c(C)noc3C)n2)c1 (centres unmarked) [Example 214-1a]
6.00 to 7.00	4.70 to 5.00	CNCC(O)COc1cccc(-c2nc(N[C@H]3C[C@H](C(=O)O)C3)c(C)c(-c3c(C)noc3C)n2)c1 (some centres unmarked) [Example 222-1a]
5.52 to 6.00	4.70 to 5.00	CNCC(O)COc1cccc(-c2nc(N[C@H]3C[C@@H](C(=O)O)C3)c(C)c(-c3c(C)noc3C)n2)c1 (some centres unmarked) [Example 223-1a]
6.00 to 7.00	≤ 4.70	CNC[C@@H](O)COc1ccc(Cl)c(-c2nc(-c3c(C)noc3C)c(C)c(C3(C)CC3)n2)c1 [Example 262-3]
